In patent US20100311965A1, “2-AMINOQUINAZOLINE DERIVATIVE” (CARNA BIOSCIENCES INC., priority 2007, published 2010):

Target: T1, Syk kinase (Homo sapiens, UniProt P43405)
T1 construct: purchased Carna Biosciences Inc. (Kobe) 08-176
Test: Kinase activity, mobility shift assay (MSA), Syk
Type: biochemical
Details: read-out: inhibitory activity against Syk kinase
Protocol: A test compound was dissolved in DMSO to obtain a 10 mM test compound solution, which was stored in a dark place at −20° C. until measurement. When bioactivity (kinase activity) is measured, a test compound solution is diluted with DMSO so that the concentration becomes 100 times higher than […], and then diluted 25 times (DMSO concentration is 4%) with an assay buffer described hereinafter.
Products manufactured by Carna Biosciences Inc. (Kobe) used as protein kinases (recombinant human kinases) in the test are as follows:
SYK (product number: 08-176), JAK3 (product number: 08-046), FLT3 (product number: 08-154), PDGFRα (PDGFRA) (product number: 08-157), TRKA (NTRK1) (product number: 08-186), KDR (product number: 08-191), CDK2/cycA (product number: 04-103), and AurA (AURKA) (product number: 05-101).
Kinase activity was measured by a mobility shift assay (MSA) method using QuickScout Screening Assist™ MSA (commercially available kit, manufactured by Carna Biosciences Inc.)
5 μl of a test compound solution (the concentration is 4 times of the final concentration) dissolved or suspended in an assay buffer [20 mM HEPES, 0.01% Triton™ X-100, 1 mM dithiothreitol, pH 7.5] or 5 μl of a solvent (4% DMSO-assay buffer) was charged in a 384 well plate made of polypropylene (product number 781280, manufactured by Greiner Bio-One Co., Ltd.). Then, 5 μl of ATP/substrate/metal solution of QuickScout Screening Assist MSA was added. Furthermore, 10 μl of a kinase solution diluted with assay buffer was added and the reaction was initiated. However, only assay buffer (10 μl) was added to blank. The concentration of kinase and reaction conditions were controlled in accordance with the protocol of QuickScout Screening Assist MSA. Then, the reaction was terminated by adding 60 μl of termination buffer of QuickScout Screening Assist MSA and the amount of a substrate (S) and a phosphorylated substrate (P) in the reaction solution were determined in accordance with the protocol of QuickScout Screening Assist MSA using LabChip3000 (manufactured by Caliper Life Sciences Co., MA, USA), and also inhibition of the test compound at a concentration of 0.01, 0.1 and 1 μM was measured, respectively. The amounts of S and P were expressed by the height of each separated peak. Inhibition (%) of the test compound was calculated in accordance with the following equation:
Inhibition (%)=(1−(C−A)/(B−A))×100
where A denotes blank, B denotes a solvent and C denotes P/(P+S) of a well of the compound.

| SMILES | inhibition at 0.1 µM |
| --- | --- |
| Cc1cccc2cnc(Nc3ccc4cn[nH]c4c3)nc12 [Example 1, N-(1H-indazol-6-yl)-8-methylquinazoline-2-amine] | ≥ 50% |
| Cc1cccc2cnc(Nc3ccc4[nH]nnc4c3)nc12 [Example 2, N-(1H-benzo[d][1,2,3]triazol-5-yl)-8-methylquinazoline-2-amine] | ≥ 50% |
| Cc1ccc(Nc2ncc3cccc(C)c3n2)cc1O [Example 29, 5-(8-methylquinazolin-2-ylamino)-2-methylphenol] | ≥ 50% |
| Cc1n[nH]c2cc(Nc3ncc4cccc(C)c4n3)ccc12 [Example 34, 8-methyl-N-(3-methyl-1H-indazol-6-yl)-quinazoline-2-amine] | ≥ 50% |
| Cc1cc(Nc2ncc3cccc(C)c3n2)cc2[nH]ncc12 [Example 37, 8-methyl-N-(4-methyl-1H-indazol-6-yl)-quinazoline-2-amine] | ≥ 50% |
| Cc1c(O)ccc2cnc(Nc3ccc4cn[nH]c4c3)nc12 [Example 48, 7-hydroxy-N-(1H-indazol-6-yl)-8-methylquinazoline-2-amine] | ≥ 50% |
| Cc1cccc2cnc(Nc3cc(N)c4cn[nH]c4c3)nc12 [Example 52, 8-methyl-N-(4-amino-1H-indazol-6-yl)quinazoline-2-amine] | ≥ 50% |
| Cc1c(NCCO)ccc2cnc(Nc3ccc4cn[nH]c4c3)nc12 [Example 73, 2-[2-(1H-indazol-6-ylamino)-8-methylquinazolin-7-ylamino]ethanol] | ≥ 50% |
| Cc1c(N)ccc2cnc(Nc3ccc4cn[nH]c4c3)nc12 [Example 74, 7-amino-N-(1H-indazol-6-yl)-8-methylquinazoline-2-amine] | ≥ 50% |
| Cc1c(N2CCC(CO)CC2)ccc2cnc(Nc3ccc4cn[nH]c4c3)nc12 [Example 84, {1-[2-(1H-indazol-6-ylamino)-8-methylquinazolin-7-yl]piperidin-4-yl}methanol] | ≥ 50% |
| Cc1n[nH]c2cc(Nc3ncc4ccc(N5CCC(CO)CC5)c(C)c4n3)ccc12 [Example 94, {1-[2-(3-methyl-1H-indazol-6-ylamino)-8-methylquinazolin-7-yl]piperidin-4-yl}methanol] | ≥ 50% |
| COc1ccc2cnc(Nc3ccc4c(C)n[nH]c4c3)nc2c1C [Example 96, N-(3-methyl-1H-indazol-6-yl)-7-methoxy-8-methylquinazoline-2-amine] | ≥ 50% |
| COc1ccc2cnc(Nc3cc(C)c4cn[nH]c4c3)nc2c1C [Example 97, N-(4-methyl-1H-indazol-6-yl)-7-methoxy-8-methylquinazoline-2-amine] | ≥ 50% |
| Cc1cccc2cnc(Nc3cc(NC(=O)NCCO)c4cn[nH]c4c3)nc12 [Example 98, 1-(2-hydroxyethyl)-3-[6-(8-methylquinazolin-2-ylamino)-1H-indazol-4-yl]urea] | ≥ 50% |
| Cc1c(F)ccc2cnc(Nc3cc(N)c4cn[nH]c4c3)nc12 [Example 99, 7-fluoro-N-(4-amino-1H-indazol-6-yl)-8-methylquinazoline-2-amine] | ≥ 50% |
| Cc1c(N2CCC(CO)CC2)ccc2cnc(Nc3cc(N)c4cn[nH]c4c3)nc12 [Example 101, {1-[2-(4-amino-1H-indazol-6-ylamino)-8-methylquinazolin-7-yl]piperidin-4-yl}methanol] | ≥ 50% |
| COc1ccc2cnc(Nc3cc(N)c4cn[nH]c4c3)nc2c1C [Example 102, N-(4-amino-1H-indazol-6-yl)-7-methoxy-8-methylquinazoline-2-amine] | ≥ 50% |
| Cc1cc(Nc2ncc3ccc(NCCO)c(C)c3n2)cc2[nH]ncc12 [Example 109, 2-[2-(4-methyl-1H-indazol-6-ylamino)-8-methylquinazolin-7-ylamino]ethanol] | ≥ 50% |
| Cc1c(F)ccc2cnc(Nc3cc(N)c4nc[nH]c4c3)nc12 [Example 123, 7-fluoro-8-methyl-N-(4-amino-1H-benzo[d]imidazol-6-yl)quinazoline-2-amine] | ≥ 50% |
| Cc1c(NCCO)ccc2cnc(Nc3cc(N)c4cn[nH]c4c3)nc12 [Example 124] | ≥ 50% |
